Data set [1] concerns Plasmodium berghei. The data set is described as follows: Antiplasmodial activity against GFP-transfected Plasmodium berghei ANKA infected in NMRI mouse assessed as mouse survival at 50 mg/kg/day, ip for 4 days measured up to 30 days. It is filed as functional.
Data set [2] is described as follows: Selectivity index, ratio of IC50 for rat L6 cells to IC50 for chloroquine and pyrimethamine resistant Plasmodium falciparum K1. The format is toxicity. The settings on record: L6 cells versus Plasmodium falciparum K1, read-out: Ratio IC50.
Data set [3] relates to Plasmodium berghei. The data set is described as follows: Antiplasmodial activity against GFP-transfected Plasmodium berghei ANKA infected in NMRI mouse assessed as reduction in parasitaemia at 50 mg/kg/day, ip for 4 days measured on 24 hrs after last dose by FACS analysis. It is filed as functional. Further details: scale not given: the % may be the effect or the level left. A general note: A flow cytometer gives signals particle by particle.

Data set [4] has as its system Plasmodium falciparum. The data set is described as follows: Antiplasmodial activity against chloroquine sensitive Plasmodium falciparum NF54 assessed as reduction in [3H]-hypoxanthine incorporation incubated for 48 hrs by liquid scintillation counting method. It is filed as functional, organism-based.
The subject of data set [5] is Plasmodium falciparum. The data set is described as follows: Antiplasmodial activity against chloroquine and pyrimethamine resistant Plasmodium falciparum K1 assessed as reduction in [3H]-hypoxanthine incorporation incubated for 48 hrs by liquid scintillation counting method. The format is functional, organism-based.
The subject of the next data set is L6. The data set is described as follows: Cytotoxicity in rat L6 cells assessed as reduction in cell viability incubated for 72 hrs by alamar blue dye based assay. The settings on record: L6, 72 h. In general terms: Alamar Blue is a resazurin reagent that responds to reducing activity.
Data set [6] in a line: Selectivity index, ratio of IC50 for rat L6 cells to IC50 for chloroquine sensitive Plasmodium falciparum NF54. Particulars: L6 cells versus Plasmodium falciparum NF54, read-out: Ratio IC50. The format is toxicity.
The subject of data set [7] is Plasmodium berghei. The data set is described as follows: Antiplasmodial activity against GFP-transfected Plasmodium berghei ANKA infected in NMRI mouse assessed as mouse survival at 50 mg/kg/day, po for 4 days measured up to 30 days. The format is functional.
In data set [8] the test system is Plasmodium berghei. The data set is described as follows: Antiplasmodial activity against GFP-transfected Plasmodium berghei ANKA infected in NMRI mouse assessed as reduction in parasitaemia at 100 mg/kg/day, po for 4 days measured on 24 hrs after last dose by FACS analysis. The format is functional. The arrangement: scale not given: the % may be the effect or the level left.

Where only a bound is given, the exact number is not on record here.

One may read the IC50 as the concentration that inhibits the measured activity by half. On to `CC(C)(C)OC(=O)N(CCCCCCCN(CCCNC(=O)C1CCC2(CC1)OOC1(O2)C2CC3CC(C2)CC1C3)C(=O)OC(C)(C)C)CCCNC(=O)C1CCC2(CC1)OOC1(O2)C2CC3CC(C2)CC1C3` (stereo not drawn), for which the Survival in the data set on Plasmodium berghei [1] turned out to be 7.3 days. For the same compound, the selectivity ratio in [2] was greater than 3020. The Activity in the data set with Plasmodium berghei [3] stood at 94.7%. In addition, the 50% inhibitory concentration (IC50) is 45.4 nM in the data set with Plasmodium falciparum [4], 32.2 nM in the data set with Plasmodium falciparum [5] and greater than 100 µM in the data set on L6.
In the case of `C[C@H]1[C@H](OC(=O)CCC(=O)NCCCN(CCCCN(CCCNC(=O)CCC(=O)O[C@@H]2O[C@@H]3O[C@@]4(C)CC[C@H]5[C@H](C)CC[C@@H]([C@H]2C)[C@@]35OO4)C(=O)CCC(=O)O[C@@H]2O[C@@H]3O[C@@]4(C)CC[C@H]5[C@H](C)CC[C@@H]([C@H]2C)[C@@]35OO4)C(=O)CCC(=O)O[C@@H]2O[C@@H]3O[C@@]4(C)CC[C@H]5[C@H](C)CC[C@@H]([C@H]2C)[C@@]35OO4)O[C@@H]2O[C@@]3(C)CC[C@H]4[C@H](C)CC[C@@H]1[C@@]24OO3`, the Survival with Plasmodium berghei [1] was 30 days. For the same compound, the selectivity ratio in data set [6] amounted to 37300. In addition, the Activity in the data set on Plasmodium berghei [3] is 95.5%. In addition, the figures for the IC50 in the data set on Plasmodium falciparum [4] and in the data set with L6 were 0.3 nM and 11.2 µM, respectively.
For `C[C@H]1[C@H](OC(=O)CCC(=O)NCCCN(CCCCN(CCCNC(=O)CCC(=O)O[C@@H]2O[C@@H]3O[C@@]4(C)CC[C@H]5[C@H](C)CC[C@@H]([C@H]2C)[C@@]35OO4)C(=O)OC(C)(C)C)C(=O)OC(C)(C)C)O[C@@H]2O[C@@]3(C)CC[C@H]4[C@H](C)CC[C@@H]1[C@@]24OO3`, the Survival in the data set on Plasmodium berghei [1] was 30 days; with Plasmodium berghei [7], 16 to 30 days. Also, the selectivity ratio in data set [6] was found to be 30200. The figures for the Activity in the data set with Plasmodium berghei [3] and with Plasmodium berghei [8] were 99.8% and 95.7%, respectively. Further, the IC50 is 0.4 nM with Plasmodium falciparum [4] and 12.1 µM with L6.

For the origin of these results see ChEMBL document CHEMBL4190368, “Synthesis and antimalarial evaluation of artesunate-polyamine and trioxolane-polyamine conjugates” (Eur J Med Chem, 2017).
